Common to all, as to assay: MIC, broth two-fold serial dilution test
The subject of one experiment is Aspergillus niger (ANIG). It counts as cell-based, ATCC 6275. Particulars: Aspergillus niger (F); M9G (minimal salts media with glucose); read-out: minimum inhibitory concentration (MIC), ANIG. As for the experimental part:
(§1) Biocidal evaluations (bactericidal, algicidal, and fungicidal) were carried out.
(§2) A minimum inhibitory concentration (MIC) value is obtained using a broth, two-fold serial dilution test performed as follows: A stock solution or dispersion of the test compound, typically at a concentration of 1%, is made in a 5:3:2 solvent solution of acetone, methanol, and water. A volume of the stock solution is dispensed into culture media to give an initial starting test concentration of 500 ppm compound.
(§3) When the test is ready to be done, each vessel in the dilution series, except the first vessel, contains an equal volume of compound free broth. The first vessel contains twice the volume of broth with the starting concentration of test compound. One half of the broth from the first vessel is transferred to the second vessel. After being mixed, one half the resulting volume is removed from the second vessel and transferred to the third vessel. The entire cycle is repeated sufficiently to give a series of concentrations amounting to 500, 250, 125, 63, 31, 16, 8, and 4 ppm (or 100, 50, 25, 12.5, 6.2, 3.1, 1.6, and 0.8), respectively.
(§4) Each vessel is then inoculated with a cell suspension of the appropriate test organism. Bacteria are grown in broth, fungi on agar slants for a time and at a temperature appropriate to the species being tested, and algae are a mixture of green algae and blue-green bacteria grown in a nutrient media. At the end of the growth period, in the case of bacteria, the broth is vortexed to disperse the cells.
(§5) In the case of fungi, the spores are harvested by pipetting water onto the slant and dislodging the spores with a sterile loop. The cell/spore suspension is standardized by controlling incubation time, temperature, and the volume of the diluent. The suspension is then used to inoculate the vessels containing the broth compound.
(§6) The vessels are then incubated at the appropriate temperature. After the incubation, the vessels are examined for growth/no growth. The minimum inhibitory concentration (MIC) is defined as the lowest concentration of compound that results in complete inhibition of growth of the test organism.
(§7) These compounds were tested in M9G
(§8) (minimal salts media with glucose)

In experiment [1] the test system is Aureobasidium pullulans (APUL). It counts as cell-based, ATCC 9348. Particulars: Aureobasidium pullulans (F); M9G (minimal salts media with glucose); read-out: minimum inhibitory concentration (MIC), APUL. On the procedure: as §1, §2, §3, §4, §5, §6
Aureobasidium pullulans (APUL)
as §7, §8
6. Aureobasidium pullulans

For the next experiment, the system named is Escherichia coli (ECOL). It counts as cell-based, gram negative, ATCC 11229. Particulars: Escherichia coli (G-); M9G (minimal salts media with glucose); read-out: minimum inhibitory concentration (MIC), ECOL. On the procedure: as §1, §2, §3, §4, §6
Escherichia coli (ECOL), gram negative
as §7, §8

The test system of experiment [2] is Pseudomonas aerugenosa (PSAE). It counts as cell-based, gram negative, ATCC 15442. Particulars: Pseudomonas aeruginosa (G-); M9G (minimal salts media with glucose); read-out: minimum inhibitory concentration (MIC), PSAE. As for the experimental part: as §1, §2, §3, §4, §6
Pseudomonas aerugenosa (PSAE), gram negative
as §7, §8
1. Pseudomonas aeruginosa (-)

Experiment [3] concerns Pseudomonas fluorescens (PSFL). It counts as cell-based, gram negative, ATCC 948. Particulars: Pseudomonas fluorescens (G-); M9G (minimal salts media with glucose); read-out: minimum inhibitory concentration (MIC), PSFL. On the procedure:
as §1, §2, §3, §4, §6
Pseudomonas fluorescens (PSFL), gram negative
as §7, §8
4. Pseudomonas fluorescens (-)

For experiment [4], the system named is Staphylococcus aureus (SAUR). It counts as cell-based, gram positive, ATCC 6538. Particulars: Staphylococcus aureus (G+); M9G (minimal salts media with glucose); read-out: minimum inhibitory concentration (MIC), SAUR. As for the experimental part: as §1, §2, §3, §4, §6
Staphylococcus aureus (SAUR), gram positive
as §7, §8
2. Staphylococcus aureus (+)

For another experiment, the system named is ALGAE. It counts as cell-based, mixture of green algae and blue-green bacteria. Particulars: green algae and blue-green bacteria; culture in Allen's medium; read-out: minimum inhibitory concentration (MIC), ALGAE. On the procedure: as §1, §2, §3
Each vessel is then inoculated with a cell suspension of the appropriate test organism. […]

Values after ≈ are worked out from the molar mass of the structure shown.

For the compound `O=C(CNC(=O)OCC#CI)OCC#CI` [Compound 4, N-iodopropargyloxycarbonyl glycine iodopropargyl ester], the MIC is below 0.12 µg/mL in the experiment with Aspergillus niger (ANIG); below 0.12 µg/mL in experiment [1]; 125 µg/mL in the experiment on Escherichia coli (ECOL); 125 µg/mL in experiment [2]; 32 µg/mL in experiment [3]; 32 µg/mL in experiment [4]. Moreover, the MIC in the experiment on ALGAE was determined as 12.5 µg/mL (≈ 28 µM).

Take `O=C(O)CNC(=O)OCC#CI` [Compound 1, N-iodopropargyloxycarbonyl glycine]: the MIC is above 500 µg/mL in the experiment on Aspergillus niger (ANIG); above 500 µg/mL in experiment [1]; 250 µg/mL in the experiment with Escherichia coli (ECOL); above 500 µg/mL in experiment [2]; 250 µg/mL in experiment [3]; 250 µg/mL in experiment [4].

With `COC(=O)[C@H](Cc1ccccc1)NC(=O)OCC#CI` [Compound 9, N-iodopropargyloxycarbonyl phenylalanine methyl ester], the MIC is below 4 µg/mL with Aspergillus niger (ANIG); below 4 µg/mL in experiment [1]; above 500 µg/mL with Escherichia coli (ECOL); above 500 µg/mL in experiment [2]; 125 µg/mL in experiment [3]; 125 µg/mL in experiment [4].

Take `COC(=O)[C@H](C)NC(=O)OCC#CI` [Compound 6, N-iodopropargyloxycarbonyl alanine methyl ester]: the MIC in the experiment on Aspergillus niger (ANIG) is below 4 µg/mL; in experiment [1], below 4 µg/mL; with Escherichia coli (ECOL), below 4 µg/mL; in experiment [2], 32 µg/mL; in experiment [3], below 4 µg/mL; in experiment [4], 16 µg/mL.

In the case of `C[C@H](NC(=O)OCC#CI)C(=O)O` [Compound 5, N-iodopropargyloxycarbonyl alanine], the MIC with Aspergillus niger (ANIG) is 125 µg/mL; in experiment [1] it was 32 µg/mL; in the experiment on Escherichia coli (ECOL) it was 125 µg/mL; in experiment [2], above 500 µg/mL; in experiment [3] it was 125 µg/mL; in experiment [4] it was 250 µg/mL.

In the case of `COC(=O)CNC(=O)OCC#CI` [Compound 2, N-iodopropargyloxycarbonyl glycine methyl ester], the MIC in the experiment with Aspergillus niger (ANIG) was below 4 µg/mL; in experiment [1] it was below 4 µg/mL; in the experiment with Escherichia coli (ECOL) it was 32 µg/mL; in experiment [2], 32 µg/mL; in experiment [3], 16 µg/mL; in experiment [4], 16 µg/mL.

For the compound `CCCCCCCCOC(=O)[C@H](C)NC(=O)OCC#CI` [Compound 7, N-iodopropargyloxycarbonyl alanine n-octyl ester], the MIC is below 4 µg/mL in the experiment with Aspergillus niger (ANIG); below 63 µg/mL in experiment [1]; below 4 µg/mL in the experiment on Escherichia coli (ECOL); 125 µg/mL in experiment [2]; 8 µg/mL in experiment [3]; 63 µg/mL in experiment [4].

As to `CCCCCCCCOC(=O)[C@H](Cc1ccccc1)NC(=O)OCC#CI` [Compound 10, N-iodopropargyloxycarbonyl phenylalanine n-octyl ester], the MIC in the experiment with Aspergillus niger (ANIG) was 125 µg/mL; in experiment [1], 125 µg/mL; with Escherichia coli (ECOL), below 4 µg/mL; in experiment [2], 63 µg/mL; in experiment [3] it was 32 µg/mL; in experiment [4], 32 µg/mL.

Turning to `CCCCCCCCOC(=O)CNC(=O)OCC#CI` [Compound 3, N-Iodopropargyloxycarbonyl glycine n-octyl ester], the MIC was below 4 µg/mL with Aspergillus niger (ANIG); below 4 µg/mL in experiment [1]; above 500 µg/mL in the experiment on Escherichia coli (ECOL); above 500 µg/mL in experiment [2]; 8 µg/mL in experiment [3]; 8 µg/mL in experiment [4].

As to `O=C(N[C@@H](Cc1ccccc1)C(=O)O)OCC#CI` [Compound 8, N-iodopropargyloxycarbonyl phenylalanine], the MIC in the experiment on Aspergillus niger (ANIG) is 250 µg/mL; in experiment [1] it was 250 µg/mL; in the experiment with Escherichia coli (ECOL), below 4 µg/mL; in experiment [2], 250 µg/mL; in experiment [3], 63 µg/mL; in experiment [4], 125 µg/mL.

The record behind these values is US5209930A, “Preparation and use of N-iodopropargyl oxycarbonyl amino acid esters and derivatives as antimicrobial agents” (Rohm and Haas Company, priority 1990, dated 1993).
